Reference: PMC8165550, “Molecular basis for diaryldiamine selectivity and competition with tRNA in a type 2 methionyl-tRNA synthetase from a Gram-negative bacterium” (The Journal of Biological Chemistry, 2021)
In brackets after ≈: the same amount, converted by molar mass. Several values for one entry are separate records, joined by “and”; a condition that tells them apart may be missing. Identical values can stand only once. Like-named read-outs stand apart in the source and are kept apart here.

How the values were obtained:
[1] = system: X. citri 306; experiment: X. citri growth inhibition, broth microdilution with resazurin; details: for MIC (minimum inhibitory concentration): X. citri 306, LBON, 28 °C, 24 h, at least 90% growth inhibition; for EC50 / MIC: Xanthomonas citri, 306, 24 h; for EC50: read-out: EC50 (growth inhibition); for MIC: read-out: MIC (minimum inhibitory concentration)
Experimental: (§1) X. citri 306 was cultivated on LBON medium (10 g/l tryptone; 5 g/l yeast extract; pH 7.0) at 28 °C. The susceptibility to distinct antibiotics was evaluated using the disc-diffusion method. Briefly, a bacterial suspension was prepared in sterile saline solution (0.85% NaCl) to an optical density of 0.1 (approximately 1.5 × 10^8 CFU/ml) and used to inoculate the surface of an LBON-agar plate (1.7% agar; 150 × 15 mm Petri dish; 55 ml/dish). Antibiotic discs were applied 15 min after inoculum, and after incubation for 24 h at 28 °C, images were recorded with a camera. The minimum inhibitory concentration was obtained through broth microdilution method. These assays were performed with eight replicates for each compound concentration. Serial 2-fold dilutions of compounds were prepared in DMSO and 1 μl transferred to sterile 96-well assay plates containing 49 μl of the culture media (LBON). Then, 50 μl of a bacterial suspension (1 × 10^6 CFU/ml) was added to each well. Plates were incubated at 28 °C for 24 h before addition of 10 μl of resazurin 0.02%. After a new incubation (up to 4 h), the fluorescence (λExc/Em = 570–615 nm) was measured using a plate reader (CLARIOstar, BMG LabTech). Blanks were prepared with culture media. Positive and negative controls were prepared with DMSO and tetracycline (10 μg/ml).

[2] = molecular target: coupled enzyme system (ScAMD, CjIMPDH, diaphorase); experiment: Control: inhibition of the coupled enzyme system used to detect AMP production; details: read-out: IC50 on coupled enzyme system, without XcMetRS step
Experimental: Inhibition studies using the XcMetRS-ScAMD-CjIMPDH-diaphorase–coupled assay (Fig. S2) were performed at various concentrations (half-log serial dilutions starting at 100 μM) of the inhibitors in anhydrous dimethyl sulfoxide (DMSO). Assays were performed at 25 °C in black 384-well microplates in 25-μl final volume in 0.1 M Tris HCl, pH 7.5, 0.15 M KCl, 10 mM MgCl2, and 0.01% Triton X-100.
Values correspond to measurements of four independent experiments and error bars denote standard deviations.

[3] = molecular target: T1, XcMetRS (WT) (Xanthomonas citri pv. citri, UniProt Q8PMP0); assay type: binding; set-up: His tag with TEV site (from pET28-TEV vector) (N); made in house; host or cells: E. coli BL21(DE3)
Experimental: All wells contained 2% DMSO used to prepare stock solutions of REP3123 and REP8839. Protein unfolding was monitored on a 7500 Real-Time PCR System (Applied Biosystems) cycler by measuring fluorescence (λEmission = 580 nm) during 71 cycles starting at 25 °C, with a one-degree Celsius increment at each cycle. Experimental data points were normalized and adjusted to the equation y = ymin + ((ymax − ymin)/(1 + e^(Tm − T)/S)), where ymax and ymin are normalized fluorescence values, Tm is the melting temperature, T is the temperature, and S is the slope.

[4] = system: X. citri strain 306; experiment: Antibiogram, agar disc-diffusion assay; details: X. citri strain 306, LBON-agar, 24 h at 28 °C
Experimental: as §1

[5] = molecular target: T2, XcMetRS (Xanthomonas citri pv. citri, UniProt Q8PMP0); experiment: Isothermal titration calorimetry (ITC); assay type: binding; details: for Kd: 20 °C
T2 construct: His tag with TEV site (from pET28-TEV vector) (N); made in house; host or cells: E. coli BL21(DE3)
Experimental: ITC measurements were performed on a MicroCal VP-ITC calorimeter equipped with a VPViewer2000 software for data acquisition at the Spectroscopy and Calorimetry Lab facility (LEC) from the Brazilian Bioscience National Laboratory/Brazilian Centre for Research in Energy and Materials (LNBio/CNPEM). Purified XcMetRS (10 μM) was titrated against the ligands in 0.1 M Hepes, pH 7.5, containing 0.3 M NaCl, 10 mM MgCl2, 5% glycerol in the absence or presence of AMP or ATP at a 5 mM final concentration. To avoid nucleotide dilution, AMP/ATP was added to both ligand and receptor solutions. The ligands were added to the protein solutions kept in a 2-ml experimental cell using a titration syringe. The reactions were performed at 20 °C under agitation (200 rpm), starting with a first injection of 2 μl of ligand solution (200 μM) during 4 s, followed by 27 injections of 10 μl with 200-s intervals between injections. Titration results were corrected for ligand dilution, and all the data were analyzed using Origin7.0 software.

[6] = molecular target: T1, XcMetRS (WT)
Experimental: Inhibition studies using the XcMetRS-ScAMD-CjIMPDH-diaphorase–coupled assay (Fig. S2) were performed at various concentrations (half-log serial dilutions starting at 100 μM) of the inhibitors in anhydrous dimethyl sulfoxide (DMSO). Assays were performed at 25 °C in black 384-well microplates in 25-μl final volume in 0.1 M Tris HCl, pH 7.5, 0.15 M KCl, 10 mM MgCl2, and 0.01% Triton X-100. […] Plots were prepared in GraphPad Prism.

[7] = molecular target: T1, XcMetRS (WT); experiment: XcMetRS enzyme kinetic assay (coupled fluorometric AMP/resorufin assay); assay type: biochemical; set-up: His tag with TEV site (from pET28-TEV vector) (N); made in house; host or cells: E. coli BL21(DE3)
Description: Similarly, vmax^app, K’, and Hill slope (h) were obtained for ATP using the equation v = (vmax^app x [S]^h)/(K’ + [S]^h). The catalytic rate constant (kcat) was estimated by the equation kcat = vmax^app/Et, where Et is the enzyme concentration in the assay.

T2 sequence (Q8PMP0 whole entry): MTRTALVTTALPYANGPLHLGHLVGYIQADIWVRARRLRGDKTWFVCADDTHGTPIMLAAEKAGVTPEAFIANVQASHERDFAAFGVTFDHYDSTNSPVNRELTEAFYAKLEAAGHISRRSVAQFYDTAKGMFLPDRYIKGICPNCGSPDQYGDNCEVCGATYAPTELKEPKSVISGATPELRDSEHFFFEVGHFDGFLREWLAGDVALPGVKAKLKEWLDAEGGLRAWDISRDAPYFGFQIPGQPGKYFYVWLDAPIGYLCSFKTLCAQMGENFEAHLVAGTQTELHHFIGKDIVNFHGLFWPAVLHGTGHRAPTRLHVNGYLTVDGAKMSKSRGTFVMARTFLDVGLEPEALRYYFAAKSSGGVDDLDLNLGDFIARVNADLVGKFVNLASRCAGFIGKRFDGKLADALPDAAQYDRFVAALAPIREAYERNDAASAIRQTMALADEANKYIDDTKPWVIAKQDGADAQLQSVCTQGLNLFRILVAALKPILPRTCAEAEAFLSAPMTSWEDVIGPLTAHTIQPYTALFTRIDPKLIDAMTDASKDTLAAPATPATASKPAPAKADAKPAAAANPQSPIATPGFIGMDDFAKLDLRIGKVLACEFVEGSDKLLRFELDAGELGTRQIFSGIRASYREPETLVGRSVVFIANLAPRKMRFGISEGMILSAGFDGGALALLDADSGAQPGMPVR
T1 sequence (Q8PMP0 whole entry): as above

O=c1cc(NCCCN[C@@H]2CCOc3c(Br)cc(Br)cc32)[nH]c2ccsc12 [REP3123]
MIC (minimum inhibitory concentration) [1]: > 128 µg/mL
EC50 [1]: 60.5 ± 1 µg/mL (≈ 118 µM)
MIC [1]: > 128 µg/mL
IC50 [2]: 26400 nM
Tm ([3]; ligand 25 µM): 47,9 ± 0,1 ^oC
Tm ([3]; ligand + ATP:Mg): 50,7 ± 0,1 ^oC

CC1(C)S[C@@H]2[C@H](NC(=O)[C@H](N)c3ccc(O)cc3)C(=O)N2[C@H]1C(=O)O [amoxicillin]
susceptibility phenotype of X. citri in antibiogram [4]: resistant

C=C(F)c1sc(CNCCCNc2cc(O)c3ccccc3n2)c(C)c1Br [REP8839]
Kd ([5]; in the presence of AMP (5 mM)): 630 nM and 600 nM
Kd ([5]; in the presence of ATP (5 mM)): 1370 nM and 1400 nM
KD ([5]; in the absence of nucleotides): no KD for REP8839 could be measured
MIC (minimum inhibitory concentration) [1]: 64 µg/mL (≈ 142 µM)
EC50 [1]: 25.5 ± 1 µg/mL (≈ 56.6 µM)
MIC [1]: 64 µg/mL (≈ 142 µM)
IC50 [6]: 20800 ± 6500 nM
Tm ([3]; ligand 25 µM): 50,6 ± 0,1 ^oC
Tm ([3]; ligand + ATP:Mg): 52,8 ± 0,1 ^oC

CO/N=C(\C(=O)N[C@@H]1C(=O)N2C(C(=O)O)=C(COC(C)=O)CS[C@H]12)c1csc(N)n1 [cefotaxime]
susceptibility phenotype of X. citri in antibiogram [4]: resistant

CO[C@@]1(NC(=O)Cc2cccs2)C(=O)N2C(C(=O)O)=C(COC(N)=O)CS[C@@H]21 [cefoxitin]
susceptibility phenotype of X. citri in antibiogram [4]: resistant

O=C1CN(/N=C/c2ccc([N+](=O)[O-])o2)C(=O)N1 [nitrofurantoin]
susceptibility phenotype of X. citri in antibiogram [4]: resistant

Nc1ncnc2c1ncn2[C@@H]1O[C@H](COP(=O)(O)OP(=O)(O)OP(=O)(O)O)[C@@H](O)[C@H]1O [ATP]
kcat ([7]; ATP as varied substrate): 0.33 ± 0.005 s⁻¹
h (Hill slope) ([7]; ATP varied): 3.3
K’ ([7]; ATP varied, L-Met 200 μM): 0.95 ± 0.08 mM
Tm ([3]; ligand 5 mM): 51.3 ^oC
Tm ([3]; ligand 5 mM, listed as ATP:Mg): 51,3 ± 0,3 ^oC
Tm shift ([3]; ligand alone): 3.0 °C

CC1(C)S[C@@H]2[C@H](NC(=O)[C@H](N)c3ccccc3)C(=O)N2[C@H]1C(=O)O [ampicillin]
susceptibility phenotype of X. citri in antibiogram [4]: resistant

neomycin
susceptibility phenotype of X. citri in antibiogram [4]: close to breakpoint values considered for a resistant phenotype

CO/N=C(\C(=O)N[C@@H]1C(=O)N2C(C(=O)O)=C(CSc3nc(=O)c(=O)[nH]n3C)CS[C@H]12)c1csc(N)n1 [ceftriaxone]
susceptibility phenotype of X. citri in antibiogram [4]: resistant

NC[C@H]1O[C@H](O[C@H]2[C@H](O)[C@@H](O[C@H]3O[C@H](CO)[C@@H](O)[C@H](N)[C@H]3O)[C@H](N)C[C@@H]2N)[C@H](N)C[C@@H]1O [tobramycin]
susceptibility phenotype of X. citri in antibiogram [4]: close to breakpoint values considered for a resistant phenotype

C[C@@H](O)[C@H]1C(=O)N2C(C(=O)O)=C(SCCN=CN)C[C@H]12 [imipenem]
susceptibility phenotype of X. citri in antibiogram [4]: resistant

C[C@H]1[C@H](NC(=O)/C(=N\OC(C)(C)C(=O)O)c2csc(N)n2)C(=O)N1S(=O)(=O)O [Aztreonam]
susceptibility phenotype of X. citri in antibiogram [4]: resistant

CC(C)(O/N=C(\C(=O)N[C@@H]1C(=O)N2C(C(=O)[O-])=C(C[n+]3ccccc3)CS[C@H]12)c1csc(N)n1)C(=O)O [ceftazidime]
susceptibility phenotype of X. citri in antibiogram [4]: resistant

CO/N=C(\C(=O)N[C@@H]1C(=O)N2C(C(=O)[O-])=C(C[N+]3(C)CCCC3)CS[C@H]12)c1csc(N)n1 [cefepime]
susceptibility phenotype of X. citri in antibiogram [4]: resistant

CSCC[C@H](N)C(=O)O [L-Met, L-methionine]
kcat ([7]; L-Met as varied substrate): 0.2062 ± 0.00467 s⁻¹
Tm ([3]; ligand 5 mM): 55,9 ± 0,2 ^oC

N[C@@H](C(=O)N[C@@H]1C(=O)N2C(C(=O)O)=C(Cl)CS[C@H]12)c1ccccc1 [cefaclor]
susceptibility phenotype of X. citri in antibiogram [4]: resistant

CC(=O)OCC1=C(C(=O)O)N2C(=O)[C@@H](NC(=O)Cc3cccs3)[C@H]2SC1 [cephalothin]
susceptibility phenotype of X. citri in antibiogram [4]: resistant
